# How the values were obtained:
# MEL cells = assay: Inhibitor treatment of MEL cells, real-time RT-PCR of globin mRNA; format: cell-based, Mouse; conditions: for effect on expression levels of Hbb-b1/2 (adult globin): 48 hours treatment
# Experimental: For studies testing inhibitors on MEL cells, the cells were treated with selected inhibitors or vehicle in culture medium (RPMI 1640 medium with 10% fetal bovine serum) for 48 hours and were subsequently harvested and analyzed for relative mRNA levels of Hbb-bh1 and Hbb-y using real-time RT-PCR.
# Primers as used in the Examples as described herein are summarized below.
# human CD34+ HSPCs [1] = assay: Cytospin analysis of erythroid differentiation of human CD34+ HSPCs; format: cell-based; conditions: after 14 days of differentiation
# Experimental: FIG. 7 is a cytospin analysis showing erythroblasts and reticulocytes in cultures of human CD34^+ HSPCs treated with PTC596 and MI-3454 and induced to undergo erythroid differentiation for 14 days. Cells were stained using Hema 3 staining system (Fisher Scientific). Scale bar, […].
# (§1) Primary human mobilized CD34^+ HSPCs (StemCell Technologies Inc.) were initially cultured in expansion medium containing StemSpan-XF Medium (StemCell Technologies Inc.) with 1× CC 100 cytokine mix (StemCell Technologies Inc.). Cells were maintained in this expansion medium at a density of 0.1-1×10^6 cells/ml for a total of 4 days with media changes every two days. On day 4, cells were induced to undergo erythroid differentiation in three phases as known in the art. Briefly, base medium for differentiation contains Iscove's Modified Dulbecco's Medium plus 2% human peripheral blood plasma (Innovative Research), 3% human AB serum (Sigma), […] human holo-transferrin (Sigma), 3 IU/mL heparin (Sigma), […] human insulin (Sigma), and 1% Penicillin-Streptomycin (Life Technologies Inc.). In the first phase (day 0 to day 6), cells were cultured at a concentration of 10^5 cells/ml in the presence of 10 ng/mL human stem cell factor (Biolegend), 1 ng/mL human IL-3 (Biolegend), and 3 IU/mL human erythropoietin (Janssen). […]
# human CD34+ HSPCs [2] = assay: Flow cytometry of F-cells (anti-HbF) in cultures of human CD34+ HSPCs; format: cell-based; conditions: erythroid differentiation 14 days
# Text: Cells were fixed with glutaraldehyde, permeabilized, and stained with a PE-conjugated anti-HbF antibody. The percentages of F-cells are indicated.
# as §1, with “(Janssen). In the second phase (day 7 to day 11), IL-3 was omitted from the first phase culture medium.” for “(Janssen).”
# BMI1 = molecular target: T1, BMI1 (Homo sapiens, UniProt P35226); assay: Western blotting of BMI1 in erythroid-differentiated human CD34+ HSPCs; format: cell-based; conditions: erythroid differentiation 14 days
# T1 construct: Western blotting analysis of protein levels of […], BMI1, MEN1, and control ACTIN in CD34^+ HSPCs; host or cells: primary human mobilized CD34+ HSPCs, erythroid differentiation for 14 days
# T1 sequence (P35226 1-326): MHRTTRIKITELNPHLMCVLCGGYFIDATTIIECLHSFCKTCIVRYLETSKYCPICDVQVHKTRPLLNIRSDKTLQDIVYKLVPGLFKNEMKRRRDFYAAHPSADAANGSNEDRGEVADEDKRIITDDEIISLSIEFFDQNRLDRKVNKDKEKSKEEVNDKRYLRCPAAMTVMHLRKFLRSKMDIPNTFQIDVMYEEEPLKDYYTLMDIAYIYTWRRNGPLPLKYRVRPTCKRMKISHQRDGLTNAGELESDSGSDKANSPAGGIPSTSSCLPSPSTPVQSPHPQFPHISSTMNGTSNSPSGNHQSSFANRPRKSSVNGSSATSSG
# Experimental: (§2) Western blotting analysis of protein levels of […], BMI1, MEN1, and control ACTIN in CD34^+ HSPCs were treated with PTC596 (PTC) at indicated concentrations (FIG. 9A), MI-3454 (MI) at indicated concentrations (FIG. 9B), or DMSO and induced to undergo erythroid differentiation for 14 days.
# as §1
# human CD34+ HSPCs [3] = assay: Real-time RT-PCR of globin mRNA in erythroid cells differentiated from human CD34+ HSPCs; format: cell-based; conditions: 14 days of differentiation; for α-globin mRNA levels: vs DMSO (FIG. 8B)
# Experimental: Human CD34^+ HSPCs treated with PTC596 (PTC) or MI-3454 (MI) at indicated concentrations or vehicle (DMSO) were induced to undergo erythroid differentiation. Cells were harvested after 14 days of differentiation for real-time RT-PCR analysis of human fetal γ (FIG. 8A), embryonic […] (FIG. 8B), and adult β (FIG. 8C) globin mRNA levels. Relative expression levels were calculated by normalizing to GAPDH mRNA levels in the same sample and also to cells treated with DMSO.
# Primary human mobilized CD34^+ HSPCs (StemCell Technologies Inc.) were initially cultured in expansion medium containing StemSpan-XF Medium (StemCell Technologies Inc.) with 1× CC 100 cytokine mix (StemCell Technologies Inc.). Cells were maintained in this expansion medium at a density of 0.1-1×10^6 cells/ml for a total of 4 days with media changes every two days. On day 4, cells were induced to undergo erythroid differentiation in three phases as known in the art. Briefly, base medium for differentiation contains Iscove's Modified Dulbecco's Medium plus 2% human peripheral blood plasma (Innovative Research), 3% human AB serum (Sigma), […] human holo-transferrin (Sigma), 3 IU/mL heparin (Sigma), […] human insulin (Sigma), and 1% Penicillin-Streptomycin (Life Technologies Inc.). In the first phase (day 0 to day 6), cells were cultured at a concentration of 10^5 cells/ml in the presence of 10 ng/mL human stem cell factor (Biolegend), 1 ng/mL human IL-3 (Biolegend), and 3 IU/mL human erythropoietin (Janssen). In the second phase (day 7 to day 11), IL-3 was omitted from the first phase culture medium. In the third phase (day 12 to day 16), both stem cell factor and IL-3 were omitted and the concentration of transferrin was adjusted to 1 mg/ml. Cell density also was adjusted to 10^6 cells/ml in the beginning of this phase. Drug treatments were started at day 2 of expansion condition and maintained thereafter. New drugs were added every 1-2 days with medium change.
# The effects of PTC596 and MI-3454 on human fetal (γ) and embryonic (ε) globin expression in erythroid cells produced in culture from primary human CD34^+ hematopoietic stem and progenitor cells (HSPCs) were further tested. […] PTC596, MI-3454, or control DMSO were added to the culture from day 2 of the expansion phase and were replenished upon media change every two days.
# γ-Globin = assay: Western blotting of γ-Globin in erythroid-differentiated human CD34+ HSPCs; format: cell-based; conditions: erythroid differentiation 14 days
# Experimental: as §2, §1
# MEN1 = molecular target: T2, MEN1 (Homo sapiens, UniProt O00255); assay: Western blotting of MEN1 (MENIN) in erythroid-differentiated human CD34+ HSPCs; format: cell-based; conditions: erythroid differentiation 14 days
# T2 construct: Western blotting analysis of protein levels of […], BMI1, MEN1, and control ACTIN in CD34^+ HSPCs; host or cells: primary human mobilized CD34+ HSPCs, erythroid differentiation for 14 days
# T2 sequence (O00255 1-610): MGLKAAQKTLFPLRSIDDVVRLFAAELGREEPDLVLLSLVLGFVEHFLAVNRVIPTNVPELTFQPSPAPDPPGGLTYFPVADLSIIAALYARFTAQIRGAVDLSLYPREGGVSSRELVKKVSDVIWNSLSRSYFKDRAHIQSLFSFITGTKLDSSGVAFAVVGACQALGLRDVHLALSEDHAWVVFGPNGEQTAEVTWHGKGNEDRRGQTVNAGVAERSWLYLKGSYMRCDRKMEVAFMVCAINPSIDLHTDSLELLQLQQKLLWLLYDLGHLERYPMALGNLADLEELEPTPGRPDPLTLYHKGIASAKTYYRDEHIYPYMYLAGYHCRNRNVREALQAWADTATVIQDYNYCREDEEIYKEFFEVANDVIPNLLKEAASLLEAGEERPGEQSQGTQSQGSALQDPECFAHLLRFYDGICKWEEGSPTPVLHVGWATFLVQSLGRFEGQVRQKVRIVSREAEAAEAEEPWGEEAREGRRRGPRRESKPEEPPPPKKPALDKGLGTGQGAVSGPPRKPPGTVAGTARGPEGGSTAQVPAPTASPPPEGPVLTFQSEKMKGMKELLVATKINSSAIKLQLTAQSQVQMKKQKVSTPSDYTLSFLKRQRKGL
# Experimental: as §2, §1
# [4] = tested concentrations, 48 hours
# [5] = 50 nM, 48 hours, relative to DMSO, normalized to Rpl4
SMILES,Hbb-bh1 mRNA levels (MEL cells; [4]),erythroid differentiation (erythroblasts and reticulocytes observed) (human CD34+ HSPCs [1]),percentage of F-cells (human CD34+ HSPCs [2]),BMI1 protein levels (BMI1),percentage of γ-globin expression levels in total β-like globin (β+γ+ε) expression levels (human CD34+ HSPCs [3]; vs DMSO),γ-globin mRNA levels (human CD34+ HSPCs [3]; vs DMSO),α-globin mRNA levels (human CD34+ HSPCs [3]),γ-Globin protein levels (γ-Globin),increase of Hbb-bh1 mRNA levels (MEL cells; [5]) [fold],increase of Hbb-y mRNA levels (MEL cells; [5]) [fold],effect on expression levels of Hbb-b1/2 (adult globin) (MEL cells),β-globin mRNA levels (human CD34+ HSPCs [3]; vs DMSO),Hbb-y mRNA levels (MEL cells; [4]),MENIN protein levels (MEN1)
CCN(C(=O)c1cc(F)ccc1Oc1cncnc1N1CC2(CCN(C[C@H]3CC[C@H](NS(=O)(=O)CC)CC3)CC2)C1)C(C)C [SNDX-5613],significantly increased,–,–,–,–,–,–,–,–,–,–,–,–,–
Cc1nc2ccc(F)cc2n1-c1nc(N)c(F)c(Nc2ccc(C(F)(F)F)cc2)n1 [PTC596],–,not blocked,higher percentage,reduced,significant increase,significantly increased,significantly increased,increased,~20,~15,minimal effects,–,–,–
CNc1nc(NC2CCN(Cc3ccc4c(cc(C#N)n4CC45CC(NC=O)(C4)C5)c3C)CC2)c2cc(CC(F)(F)F)sc2n1 [MI-3454],significant increases,not blocked,higher percentage,–,significant increase,significantly increased,significantly increased,increased,–,–,minor changes,increase,significant increases,reduced

# From patent US20240100049A1, “REACTIVATION OF EMBRYONIC AND FETAL HEMOGLOBIN” (The Henry M. Jackson Foundation for the Advancement of …, priority 2021, published 2024)
